One test deals with GSPT1 (Homo sapiens, UniProt P15170+Q96SW2). Briefly: HiBiT degradation assay, GSPT1, Procedure B (Molt 4_hGSPT1_HiBIT cells). Also noted: Molt 4_hGSPT1_HiBIT N-terminus tagged cells were generated using CRISPR technology; endogenous in cells; host or cells: Molt 4 cells, CRISPR-edited. The class given is cell-based. Conditions: six hours. How it is done: Molt 4_hGSPT1_HiBIT N-terminus tagged cells were generated using CRISPR technology. Cells were maintained in RPMI media (Thermo Fisher Scientific, Catalog #11875-093) containing 10% Fetal Bovine Serum (Thermo Fisher Scientific, Catalog #16140071) 1% Penicillin-Streptomycin (Thermo Fisher Scientific, Catalog #25200056). Cells were maintained at 37° C. in a 5% CO2 environment.
Chain of GSPT1 (P15170 whole entry): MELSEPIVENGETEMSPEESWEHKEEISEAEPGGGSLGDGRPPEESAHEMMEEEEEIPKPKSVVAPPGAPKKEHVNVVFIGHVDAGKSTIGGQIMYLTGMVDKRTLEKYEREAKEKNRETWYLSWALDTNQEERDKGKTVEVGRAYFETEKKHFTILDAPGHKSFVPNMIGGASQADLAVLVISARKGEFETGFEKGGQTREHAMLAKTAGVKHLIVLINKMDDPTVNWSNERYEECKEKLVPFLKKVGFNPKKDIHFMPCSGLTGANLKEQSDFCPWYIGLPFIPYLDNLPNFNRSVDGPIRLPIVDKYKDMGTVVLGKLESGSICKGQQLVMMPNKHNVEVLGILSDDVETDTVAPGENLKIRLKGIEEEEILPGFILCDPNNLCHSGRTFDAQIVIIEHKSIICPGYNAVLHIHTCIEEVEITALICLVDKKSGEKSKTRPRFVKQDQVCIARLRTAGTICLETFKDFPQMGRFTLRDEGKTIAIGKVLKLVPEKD
Chain of GSPT1 (Q96SW2 whole entry): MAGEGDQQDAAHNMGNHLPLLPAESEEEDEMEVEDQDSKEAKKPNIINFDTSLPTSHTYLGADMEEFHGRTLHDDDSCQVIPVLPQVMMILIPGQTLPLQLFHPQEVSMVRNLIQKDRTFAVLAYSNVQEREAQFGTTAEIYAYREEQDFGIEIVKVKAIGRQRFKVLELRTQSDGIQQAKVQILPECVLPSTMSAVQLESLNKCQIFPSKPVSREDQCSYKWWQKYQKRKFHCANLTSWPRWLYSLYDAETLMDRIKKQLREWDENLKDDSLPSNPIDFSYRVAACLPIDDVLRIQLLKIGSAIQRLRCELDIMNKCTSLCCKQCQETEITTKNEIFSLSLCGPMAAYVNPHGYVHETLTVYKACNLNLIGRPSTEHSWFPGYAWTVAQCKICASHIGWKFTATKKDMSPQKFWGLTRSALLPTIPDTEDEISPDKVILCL
Chain of GSPT1 (Q16531 whole entry partner): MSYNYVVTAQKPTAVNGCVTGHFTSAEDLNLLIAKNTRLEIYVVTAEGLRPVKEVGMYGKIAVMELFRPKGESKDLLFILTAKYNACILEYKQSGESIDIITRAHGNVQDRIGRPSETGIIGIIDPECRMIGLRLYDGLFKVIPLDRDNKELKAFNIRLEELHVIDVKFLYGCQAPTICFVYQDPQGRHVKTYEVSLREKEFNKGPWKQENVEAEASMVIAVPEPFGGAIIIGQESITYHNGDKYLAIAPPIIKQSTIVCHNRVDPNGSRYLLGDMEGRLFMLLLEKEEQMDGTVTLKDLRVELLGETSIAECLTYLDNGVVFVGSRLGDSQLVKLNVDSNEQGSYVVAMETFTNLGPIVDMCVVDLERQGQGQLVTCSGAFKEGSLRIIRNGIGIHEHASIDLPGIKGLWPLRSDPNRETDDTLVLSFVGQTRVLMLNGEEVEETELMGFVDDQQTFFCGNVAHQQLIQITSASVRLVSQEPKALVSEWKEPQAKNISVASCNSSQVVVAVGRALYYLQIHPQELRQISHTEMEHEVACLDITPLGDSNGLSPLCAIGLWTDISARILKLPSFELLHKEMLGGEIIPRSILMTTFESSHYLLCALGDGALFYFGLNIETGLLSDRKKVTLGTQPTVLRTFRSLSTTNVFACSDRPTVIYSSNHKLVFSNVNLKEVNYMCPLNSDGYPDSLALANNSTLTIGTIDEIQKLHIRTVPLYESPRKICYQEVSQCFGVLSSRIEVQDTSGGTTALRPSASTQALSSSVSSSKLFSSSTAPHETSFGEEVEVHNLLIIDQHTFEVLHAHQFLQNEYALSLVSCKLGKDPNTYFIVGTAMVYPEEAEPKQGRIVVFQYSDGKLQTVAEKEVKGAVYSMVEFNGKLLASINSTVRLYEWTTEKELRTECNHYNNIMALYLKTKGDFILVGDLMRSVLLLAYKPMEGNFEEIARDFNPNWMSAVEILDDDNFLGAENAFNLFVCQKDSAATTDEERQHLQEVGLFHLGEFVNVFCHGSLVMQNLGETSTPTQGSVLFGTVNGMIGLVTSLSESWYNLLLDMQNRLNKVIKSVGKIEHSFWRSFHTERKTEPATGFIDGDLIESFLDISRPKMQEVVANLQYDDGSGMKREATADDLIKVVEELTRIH
Compounds were spotted onto Cornin 384-Well, Cell Culture-Treated, Flat-Bottom, Low Flange Microplate (Fisher Scientific, Catalog #07-201-013) using a Tecan D300e digital dispenser. Ten-point dose response curves spanning from 10 μM to 0.005 μM with a 0.1% DMSO tolerance were used.
Cells were centrifuged for 5 minutes at 1200 RPMs. Cell culture media was aspirated off and cells were resuspended with RPMI+10% FBS. Cell density was determined using a Denovix CellDrop BF cell counter. Cell density was adjusted to 1×10^6 cells/ml. 40 μl of cells was added to compound treated tissue culture plates and incubated for six hours at 37° C. After six hours, cell culture plates were removed from tissue culture incubator and cooled to room temperature. 40 μl of Nano-GloHiBiT Lytic Detection Reagent (Promega, Catalog #N3040) was added to each well. Plates were placed on an orbital shaker (600 rpm) for 20 minutes. Luminescence was measured using an Envsion plate reader (Perkin Elmer). IC50 curves and Ymin were generated using a 4-parameter curve fit with GraphPad Prism software (Prism Corporation).
Results from the HiBiT assay (DC50 (nM) and Ymin (% remaining)) are shown below. All CK1α data was generated according to Procedure A. GSPT1 data for Examples 1-600, 603-620 and 703-705 was generated according to Procedure A. GSPT1 data for Examples 601, 621-702 and 706-735 was generated according to Procedure B.

Another test has as its target T1, CK1α (Homo sapiens, UniProt P48729+Q96SW2).
T1 construct: CSNK1A1-HiBit KI HEK293(LgBit) Cells; host or cells: HEK293(LgBit) knock-in cells
Description: HiBiT degradation assay, CK1α, Procedure A. The class given is cell-based. Conditions: six hours. In outline: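 Cells in DMEM + 10% FBS were treated with compound in a ten-point dose response from 10 μM to 0.005 μM (0.1% DMSO) for six hours at 37° C. Lysis with Nano-Glo HiBiT detection reagent followed, with luminescence read. DC50 and Ymin came from a 4-parameter fit.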
For orientation: HiBiT is a short tag that completes a luciferase, so light tracks the accessible tagged protein.

T1 sequence (P48729 whole entry): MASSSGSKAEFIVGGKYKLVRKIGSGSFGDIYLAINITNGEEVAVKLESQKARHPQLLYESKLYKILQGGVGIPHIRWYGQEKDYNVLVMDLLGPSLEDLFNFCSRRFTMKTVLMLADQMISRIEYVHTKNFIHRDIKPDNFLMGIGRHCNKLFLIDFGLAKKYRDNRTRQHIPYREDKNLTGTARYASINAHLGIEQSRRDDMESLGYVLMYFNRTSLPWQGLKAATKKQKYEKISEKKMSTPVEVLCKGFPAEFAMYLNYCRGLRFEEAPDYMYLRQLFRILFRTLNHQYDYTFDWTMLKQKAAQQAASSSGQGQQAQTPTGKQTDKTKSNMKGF
T1 sequence (Q96SW2 whole entry): as the sequence (Q96SW2 whole entry) above
T1 sequence (Q16531 whole entry partner): as the sequence (Q16531 whole entry partner) above

The DC50 is the midpoint of the concentration-degradation curve. For `Cn1cc(-c2ccc3c(c2)CN(C2CCC(=O)NC2=O)C3=O)nc1-c1c[nH]c2ncccc12` (stereo not drawn) [Example 662], at GSPT1, the DC50 is not below 25 nM and the “GSPT1 Ymin” value is reported as “F (F = >75-100% remaining)”. Also, on CK1α, the “CK1α Ymin” value was “E (E = >25-75% remaining)” and the DC50 is less than 25 nM.
The corresponding values for `Cn1cc(-c2ccc3c(c2)CN(C2CCC(=O)NC2=O)C3=O)nc1-c1cncc2ccccc12` (stereo not drawn) [Example 659] are not below 25 nM, “F (F = >75-100% remaining)”, “E (E = >25-75% remaining)” and less than 25 nM.
The matching figures for `Cn1cc(-c2ccc3c(c2)CN(C2CCC(=O)NC2=O)C3=O)nc1-c1ccc(Cl)cc1F` (stereo not drawn) [Example 644]: not below 25 nM, “F (F = >75-100% remaining)”, “D (D = >10- 25% remaining)” and less than 25 nM.
Turning to `Cn1cc(-c2ccc3c(c2)CN(C2CCC(=O)NC2=O)C3=O)nc1-c1ccc(N2CCNCC2)cc1` (stereo not drawn) [Example 721], on GSPT1, the DC50 was not below 25 nM and the “GSPT1 Ymin” value is listed as “F (F = >75-100% remaining)”. In addition, at CK1α, the “CK1α Ymin” value is “D (D = >10- 25% remaining)” and the DC50 is not below 25 nM.
In the case of `O=C1CCC(N2Cc3cc(-c4nc(C5CC5)oc4-c4ccccc4)ccc3C2=O)C(=O)N1` (stereo not drawn) [Example 734, 3-(5-(2-cyclopropyl-5-phenyloxazol-4-yl)-1-oxoisoindolin-2-yl)piperidine-2,6-dione], on GSPT1, the DC50 is not below 25 nM and the “GSPT1 Ymin” value is reported as “F (F = >75-100% remaining)”. At CK1α, the “CK1α Ymin” value is “C (C = 0-10% remaining)” and the DC50 is less than 25 nM.
The matching figures for `Cn1ncc(-c2ccc3c(c2)CN(C2CCC(=O)NC2=O)C3=O)c1C1CCC(F)(F)CC1` (stereo not drawn) [Example 699]: not below 25 nM, “F (F = >75-100% remaining)”, “F (F = >75-100% remaining)” and not below 25 nM.
The matching figures for `COc1cc(Cl)ccc1-c1nc(-c2ccc3c(c2)CN(C2CCC(=O)NC2=O)C3=O)cn1C` (stereo not drawn) [Example 638]: less than 25 nM, “F (F = >75-100% remaining)”, “C (C = 0-10% remaining)” and less than 25 nM.
The matching figures for `Cn1cc(-c2ccc3c(c2)CN(C2CCC(=O)NC2=O)C3=O)nc1-c1ccccc1O` (stereo not drawn) [Example 624]: less than 25 nM, “F (F = >75-100% remaining)”, “C (C = 0-10% remaining)” and less than 25 nM.
`Cn1cc(-c2ccc3c(c2)CN(C2CCC(=O)NC2=O)C3=O)nc1-c1ccnc2ccccc12` (stereo not drawn) [Example 686]: on GSPT1, the DC50 is less than 25 nM and the “GSPT1 Ymin” value was “F (F = >75-100% remaining)”. Also, at CK1α, the “CK1α Ymin” value is “C (C = 0-10% remaining)” and the DC50 was less than 25 nM.
As to `Cn1cc(-c2ccc3c(c2)CN(C2CCC(=O)NC2=O)C3=O)nc1-c1ccccc1Cl` (stereo not drawn) [Example 639], at GSPT1, the DC50 is not below 25 nM and the “GSPT1 Ymin” value is “E (E = >25-75% remaining)”. For the same compound, at CK1α, the “CK1α Ymin” value is “C (C = 0-10% remaining)” and the DC50 was less than 25 nM.
The matching figures for `Cn1cc(-c2ccc3c(c2)CN(C2CCC(=O)NC2=O)C3=O)nc1-c1ccc(F)c(F)c1` (stereo not drawn) [Example 628]: not below 25 nM, “F (F = >75-100% remaining)”, “D (D = >10- 25% remaining)” and less than 25 nM.
For `C[C@@H]1CCCCN1c1nc(-c2ccc3c(c2)CN(C2CCC(=O)NC2=O)C3=O)nn1C` (stereo partly drawn) [Example 709, 3-(5-(1-methyl-5-((R)-2-methylpiperidin-1-yl)-1H-1,2,4-triazol-3-yl)-1-oxoisoindolin-2-yl)piperidine-2,6-dione], at GSPT1, the DC50 was not below 25 nM and the “GSPT1 Ymin” value was “F (F = >75-100% remaining)”. On CK1α, the “CK1α Ymin” value is reported as “D (D = >10- 25% remaining)” and the DC50 was less than 25 nM.
Take `Cn1c(C2CCC2)nc(-c2ccc3c(c2)CN(C2CCC(=O)NC2=O)C3=O)c1-c1ccccc1` (stereo not drawn) [Example 727, 3-(5-(2-cyclobutyl-1-methyl-5-phenyl-1H-imidazol-4-yl)-1-oxoisoindolin-2-yl)piperidine-2,6-dione]: at GSPT1, the DC50 was not below 25 nM and the “GSPT1 Ymin” value was “F (F = >75-100% remaining)”. Besides, on CK1α, the “CK1α Ymin” value is recorded as “C (C = 0-10% remaining)” and the DC50 was less than 25 nM.
Take `O=C1CCC(N2Cc3cc(-c4nc(C(F)F)oc4-c4ccccc4)ccc3C2=O)C(=O)N1` (stereo not drawn) [Example 735, 3-(5-(2-(difluoromethyl)-5-phenyloxazol-4-yl)-1-oxoisoindolin-2-yl) piperidine-2,6-dione]: on GSPT1, the DC50 was less than 25 nM and the “GSPT1 Ymin” value was “E (E = >25-75% remaining)”. Moreover, at CK1α, the “CK1α Ymin” value is reported as “C (C = 0-10% remaining)” and the DC50 is less than 25 nM.
Take `COc1ccc(Cl)cc1-c1nc(-c2ccc3c(c2)CN(C2CCC(=O)NC2=O)C3=O)cn1C` (stereo not drawn) [Example 643]: at GSPT1, the half-maximal degradation concentration (DC50) is not below 25 nM and the “GSPT1 Ymin” value is on record as “F (F = >75-100% remaining)”. For the same compound, at CK1α, the “CK1α Ymin” value is “D (D = >10- 25% remaining)” and the DC50 is less than 25 nM.
The corresponding values for `COc1ccc(Cn2cc(-c3nc(-c4ccc5c(c4)CN(C4CCC(=O)NC4=O)C5=O)cn3C)cn2)cc1` (stereo not drawn) [Example 625] are not below 25 nM, “F (F = >75-100% remaining)”, “C (C = 0-10% remaining)” and less than 25 nM.
Turning to `Cn1cc(-c2ccc3c(c2)CN(C2CCC(=O)NC2=O)C3=O)nc1-c1cccc(C#N)c1` (stereo not drawn) [Example 632], at GSPT1, the DC50 was not below 25 nM and the “GSPT1 Ymin” value was “F (F = >75-100% remaining)”. Also, on CK1α, the “CK1α Ymin” value is “D (D = >10- 25% remaining)” and the DC50 is less than 25 nM.
For the compound `Cn1ncc(-c2ccc3c(c2)CN(C2CCC(=O)NC2=O)C3=O)c1C1=CCCCCC1` (stereo not drawn) [Example 697], at GSPT1, the DC50 is not below 25 nM and the “GSPT1 Ymin” value was “E (E = >25-75% remaining)”. For the same compound, at CK1α, the “CK1α Ymin” value is “D (D = >10- 25% remaining)” and the DC50 is less than 25 nM.
The matching figures for `Cn1ncc(-c2ccc3c(c2)CN(C2CCC(=O)NC2=O)C3=O)c1C1=CCC(c2ccccc2)CC1` (stereo not drawn) [Example 696]: not below 25 nM, “F (F = >75-100% remaining)”, “E (E = >25-75% remaining)” and less than 25 nM.
For `Cn1cc(-c2ccc3c(c2)CN(C2CCC(=O)NC2=O)C3=O)nc1-c1ccc(Cl)c(F)c1` (stereo not drawn) [Example 661], at GSPT1, the DC50 was not below 25 nM and the “GSPT1 Ymin” value is “F (F = >75-100% remaining)”. In addition, on CK1α, the “CK1α Ymin” value is reported as “E (E = >25-75% remaining)” and the DC50 was less than 25 nM.
The corresponding values for `Cn1cc(-c2ccc3c(c2)CN(C2CCC(=O)NC2=O)C3=O)nc1-c1ccc2c(c1)OCO2` (stereo not drawn) [Example 680] are not below 25 nM, “E (E = >25-75% remaining)”, “C (C = 0-10% remaining)” and less than 25 nM.
The corresponding values for `Cn1cc(-c2ccc3c(c2)CN(C2CCC(=O)NC2=O)C3=O)nc1-c1ccccc1C(F)(F)F` (stereo not drawn) [Example 649] are less than 25 nM, “E (E = >25-75% remaining)”, “D (D = >10- 25% remaining)” and less than 25 nM.
Take `Cn1nc(-c2ccc3c(c2)CN(C2CCC(=O)NC2=O)C3=O)nc1N1[C@@H]2CCC[C@H]1CC2` (stereo partly drawn) [Example 706, 3-(5-(5-((1R,5S)-8-azabicyclo[3.2.1]octan-8-yl)-1-methyl-1H-1,2,4-triazol-3-yl)-1-oxoisoindolin-2-yl)piperidine-2,6-dione]: at GSPT1, the DC50 was not below 25 nM and the “GSPT1 Ymin” value is on record as “F (F = >75-100% remaining)”. On CK1α, the “CK1α Ymin” value is “D (D = >10- 25% remaining)” and the DC50 was less than 25 nM.
The matching figures for `Cn1cc(-c2ccc3c(c2)CN(C2CCC(=O)NC2=O)C3=O)nc1-c1ccc2nccn2c1` (stereo not drawn) [Example 658]: not below 25 nM, “F (F = >75-100% remaining)”, “D (D = >10- 25% remaining)” and not below 25 nM.

The values are drawn from patent US20240158370A1, “CK1 alpha AND DUAL CK1 alpha / GSPT1 DEGRADING COMPOUNDS” (Innovo Therapeutics, Inc., priority 2022, published 2024).
